# Active and inactive are the calls of the source.
# Assays:
# [1] = T. cruzi growth inhibition in host cells, dose response, cell-based, plate reader, dry powder, set 2 (AID 652275); assay type: functional
# HeLa = assay: viability loss in HeLa cells – cell-based, ATP luminescence, cherry-pick samples, cytotoxicity control, dose response (AID 687004); assay type: functional; settings: Homo sapiens
# BJ [2] = assay: cells; assay type: functional, cell-based; settings: Homo sapiens
# INS1 = assay: INS-1E survival protection against cytokine death – cell-based, luminescence, retest, dose response (AID 449756); assay type: functional; settings: Rattus norvegicus;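 further: cell death triggered by IL-1 beta plus TNF-alpha plus IFN-gamma mixture; protective hits raise ATP signal compared with cytokine alone wells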
# BJ [3] = assay: BJ-TERT fibroblast viability loss – cell-based, RAS-independent, luminescence, dose response (AID 1933); assay type: functional; settings: Homo sapiens
# [4] = molecular target: T1, Replicative DNA helicase DnaB (Mycobacterium tuberculosis, UniProt P9WMR3); assay: DnaB intein splicing inhibitors, dose response, biochemical, cell-free fluorescence (AID 449749); assay type: functional
# T1 sequence (P9WMR3 whole entry): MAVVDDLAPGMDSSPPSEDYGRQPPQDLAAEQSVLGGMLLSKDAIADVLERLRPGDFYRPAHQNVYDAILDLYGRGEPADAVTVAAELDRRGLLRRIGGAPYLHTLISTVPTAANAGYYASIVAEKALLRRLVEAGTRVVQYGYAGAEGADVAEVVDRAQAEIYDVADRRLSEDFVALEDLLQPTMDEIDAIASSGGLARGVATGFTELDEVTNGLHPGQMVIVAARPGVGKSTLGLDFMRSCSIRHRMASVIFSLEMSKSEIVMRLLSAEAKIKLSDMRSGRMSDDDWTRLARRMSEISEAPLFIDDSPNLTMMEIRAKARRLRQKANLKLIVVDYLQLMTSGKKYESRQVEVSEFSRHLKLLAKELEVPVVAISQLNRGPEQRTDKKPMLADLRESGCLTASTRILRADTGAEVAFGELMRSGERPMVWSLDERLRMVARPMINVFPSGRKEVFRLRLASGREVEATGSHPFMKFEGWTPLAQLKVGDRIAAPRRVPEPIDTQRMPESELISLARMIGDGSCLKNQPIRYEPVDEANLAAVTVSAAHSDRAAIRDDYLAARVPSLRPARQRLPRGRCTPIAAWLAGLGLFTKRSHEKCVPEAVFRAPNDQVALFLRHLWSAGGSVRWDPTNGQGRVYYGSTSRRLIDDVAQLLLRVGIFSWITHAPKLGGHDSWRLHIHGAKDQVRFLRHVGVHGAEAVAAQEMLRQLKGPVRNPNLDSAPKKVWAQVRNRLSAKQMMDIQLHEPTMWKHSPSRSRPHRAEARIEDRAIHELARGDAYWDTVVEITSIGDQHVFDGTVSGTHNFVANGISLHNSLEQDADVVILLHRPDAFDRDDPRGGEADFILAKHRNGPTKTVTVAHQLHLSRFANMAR
# Streptokinase A = molecular target: T2, Streptokinase A (Streptococcus pyogenes serotype M1, UniProt P10520); assay: viability-normalized secreted streptokinase activity reduction – plasminogen activation absorbance, OD405, dose response (AID 1914); assay type: functional, Streptococcus pyogenes M1 GAS;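 further: secreted streptokinase activity via plasminogen activation per viability signal from cell pellet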
# T2 sequence (P10520 whole entry): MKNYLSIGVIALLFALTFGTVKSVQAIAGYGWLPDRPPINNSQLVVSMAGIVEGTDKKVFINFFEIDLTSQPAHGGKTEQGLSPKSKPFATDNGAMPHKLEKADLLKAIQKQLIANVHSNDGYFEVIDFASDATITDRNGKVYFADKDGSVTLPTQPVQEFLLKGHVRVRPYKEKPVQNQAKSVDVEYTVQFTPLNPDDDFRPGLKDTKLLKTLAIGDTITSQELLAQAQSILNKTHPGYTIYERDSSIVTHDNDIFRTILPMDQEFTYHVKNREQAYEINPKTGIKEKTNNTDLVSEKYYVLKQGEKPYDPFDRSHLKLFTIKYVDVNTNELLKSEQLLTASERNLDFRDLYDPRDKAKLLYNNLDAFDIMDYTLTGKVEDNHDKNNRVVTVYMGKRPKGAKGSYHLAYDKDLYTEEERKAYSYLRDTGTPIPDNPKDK
# [5] = DRD fibroblast viability loss – cell-based, non-viral oncogenic, luminescence, dose response (AID 1934); assay type: functional; settings: Homo sapiens
# [6] = alpha-synuclein stem-loop luciferase translation blockers – H4 neuroglioma cells, luminescence, confirmation (AID 1988); assay type: functional, cell-based
# [7] = luciferase reporter signal suppression in cells – H4 neuroglioma cells, luminescence, dose response (AID 1990); assay type: functional, cell-based
# [8] = molecular target: Fructose-bisphosphate aldolase (Mycobacterium tuberculosis, UniProt P9WQA3); assay: Fluorescence-based biochemical high throughput dose response assay for inhibitors of the fructose-bisphosphate aldolase (FBA) of M. tuberculosis.; assay type: functional
# BJ [9] = assay: BJ-TERT-LT-ST fibroblast viability loss – cell-based, RAS-independent, luminescence, dose response (AID 1935); assay type: functional; settings: Homo sapiens;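 further: BJ fibroblasts immortalized with TERT plus LT and ST oncogenes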
# [10] = test system: Streptococcus sp. 'group A'; assay: Streptococcus pyogenes SK(-)GAS viability under kanamycin – luminescence, BacTiterGlo, confirmation, counter-screen for streptokinase expression inhibitor project, dose response (AID 1900); assay type: functional, organism-based
# [11] = Luminescence Cell-Based Dose Response HTS to Identify Inhibitors of 5'UTR Stem-Loop Driven Prion Protein mRNA Translation in H4 Neuroglioblastoma Cells. [Related pubchem assays: 1827 (Project Summary), 1813 (Primary HTS)]; assay type: functional
# Streptococcus = assay: GAS UMAA2166 growth inhibition – luminescence, BacTiterGlo, counter-screen for streptokinase expression inhibitor project, dose response (AID 1915); assay type: functional, organism-based;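 further: potency for reduction of bacterial viability or growth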
# Protein RecA = molecular target: T3, Protein RecA (Mycobacterium tuberculosis, UniProt P9WHJ3); assay: Fluorescence Cell-Free Homogeneous Dose Retest to Identify Inhibitors of RecA-Intein Splicing Activity. [Related pubchem assays (depositor defined):AID2097, AID2223, AID489010, AID492950]; assay type: functional
# T3 sequence (P9WHJ3 whole entry): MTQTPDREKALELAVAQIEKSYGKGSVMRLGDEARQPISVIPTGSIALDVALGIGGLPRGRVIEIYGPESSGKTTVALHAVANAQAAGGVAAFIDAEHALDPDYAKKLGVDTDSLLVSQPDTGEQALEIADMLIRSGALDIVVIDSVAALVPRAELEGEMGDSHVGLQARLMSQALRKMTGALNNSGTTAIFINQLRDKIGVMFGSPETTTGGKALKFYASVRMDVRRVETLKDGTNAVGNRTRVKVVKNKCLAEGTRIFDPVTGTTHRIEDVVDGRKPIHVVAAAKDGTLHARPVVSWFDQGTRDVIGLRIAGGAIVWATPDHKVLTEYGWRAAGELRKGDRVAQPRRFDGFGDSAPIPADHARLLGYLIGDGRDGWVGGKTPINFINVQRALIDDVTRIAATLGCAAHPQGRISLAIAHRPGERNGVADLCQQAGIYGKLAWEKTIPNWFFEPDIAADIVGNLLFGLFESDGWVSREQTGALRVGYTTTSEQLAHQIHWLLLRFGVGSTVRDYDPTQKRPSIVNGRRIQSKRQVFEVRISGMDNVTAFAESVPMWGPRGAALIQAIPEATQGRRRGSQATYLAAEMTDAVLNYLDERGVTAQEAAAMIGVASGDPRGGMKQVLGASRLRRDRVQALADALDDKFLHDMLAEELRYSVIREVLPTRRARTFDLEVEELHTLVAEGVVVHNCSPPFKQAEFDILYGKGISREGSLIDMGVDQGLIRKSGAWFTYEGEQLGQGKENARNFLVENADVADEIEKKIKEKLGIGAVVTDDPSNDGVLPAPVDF
# [12] = molecular target: T4, Sentrin-specific protease 1 (Homo sapiens, UniProt Q9P0U3); assay: Dose response confirmation of small molecule inhibitors of the catalytic domain of the SUMO protease, SENP1 in a FRET assay.; assay type: functional; settings: read-out: IC50_Mean
# T4 sequence (Q9P0U3 whole entry): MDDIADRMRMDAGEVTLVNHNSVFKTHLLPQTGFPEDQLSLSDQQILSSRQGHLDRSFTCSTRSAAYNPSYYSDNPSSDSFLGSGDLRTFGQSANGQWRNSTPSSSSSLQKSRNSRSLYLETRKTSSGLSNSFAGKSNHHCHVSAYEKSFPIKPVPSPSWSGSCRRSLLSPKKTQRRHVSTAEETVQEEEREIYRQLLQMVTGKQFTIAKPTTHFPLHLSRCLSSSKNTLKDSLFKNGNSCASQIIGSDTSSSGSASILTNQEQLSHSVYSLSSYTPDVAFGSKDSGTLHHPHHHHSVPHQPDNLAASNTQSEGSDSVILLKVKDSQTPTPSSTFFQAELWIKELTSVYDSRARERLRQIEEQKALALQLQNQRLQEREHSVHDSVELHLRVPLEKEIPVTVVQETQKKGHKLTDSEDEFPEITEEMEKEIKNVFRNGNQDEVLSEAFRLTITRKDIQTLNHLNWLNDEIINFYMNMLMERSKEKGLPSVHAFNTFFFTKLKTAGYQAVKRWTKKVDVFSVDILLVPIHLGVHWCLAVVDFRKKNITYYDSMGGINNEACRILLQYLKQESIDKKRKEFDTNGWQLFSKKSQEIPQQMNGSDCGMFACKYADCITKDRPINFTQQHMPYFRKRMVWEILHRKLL
# [13] = molecular target: T4, Sentrin-specific protease 1; assay: SENP1 catalytic domain blockers, concentration series – biochemical, kinetic FRET, dose response (AID 651697); assay type: functional; settings: read-out: IC50_Mean
# cells [14] = assay type: functional, cell-based
# cells [15] = assay type: functional, cell-based; remark: listed apart in the source
# [16] = molecular target: Photoreceptor-specific nuclear receptor (Homo sapiens, UniProt Q9Y5X4); assay type: functional, cell-based;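 further: CHO-S cells with Gal4-NCOR and VP16-NR2E3 two-hybrid luciferase reporter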
# Sequence of Photoreceptor-specific nuclear receptor (Q9Y5X4 whole entry, the tested form may be a part): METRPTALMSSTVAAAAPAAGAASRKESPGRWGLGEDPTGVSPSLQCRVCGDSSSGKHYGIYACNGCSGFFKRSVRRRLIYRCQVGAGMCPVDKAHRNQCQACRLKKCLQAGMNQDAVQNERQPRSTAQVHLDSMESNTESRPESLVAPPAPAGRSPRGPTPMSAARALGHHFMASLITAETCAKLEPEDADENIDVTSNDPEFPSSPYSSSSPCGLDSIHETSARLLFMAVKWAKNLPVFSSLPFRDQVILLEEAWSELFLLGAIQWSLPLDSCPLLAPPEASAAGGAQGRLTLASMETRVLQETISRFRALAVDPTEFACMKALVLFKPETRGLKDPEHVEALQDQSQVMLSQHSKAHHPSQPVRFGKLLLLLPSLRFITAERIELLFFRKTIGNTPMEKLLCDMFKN
# Sequence of Fructose-bisphosphate aldolase (P9WQA3 whole entry): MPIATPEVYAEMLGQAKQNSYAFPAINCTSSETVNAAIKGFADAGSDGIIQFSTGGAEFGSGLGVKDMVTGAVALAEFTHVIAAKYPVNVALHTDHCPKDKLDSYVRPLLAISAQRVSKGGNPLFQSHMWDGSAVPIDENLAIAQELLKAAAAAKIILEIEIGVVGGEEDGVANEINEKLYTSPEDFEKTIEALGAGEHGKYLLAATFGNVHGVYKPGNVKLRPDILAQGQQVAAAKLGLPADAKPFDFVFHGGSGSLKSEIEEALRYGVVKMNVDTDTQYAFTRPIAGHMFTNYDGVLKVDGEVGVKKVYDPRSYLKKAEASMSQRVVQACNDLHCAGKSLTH
smiles,measurement,setting,value
CN(C)C(=O)c1cccc(-c2ccc([C@H]3[C@H](CO)N4CCCCN(Cc5cccnc5)C[C@@H]34)cc2)c1,AC50,[1],0.481 µM (active)
CC(=O)c1sc(NC(=O)c2cc(-c3ccccc3)nn2-c2ccccc2)nc1C,AC50,HeLa,> 52 µM (inactive)
Cc1ccc(-c2cc(-c3ccc(C)cc3)[n+](-c3ccc(C(=O)[O-])cc3)c(-c3ccc(C)cc3)c2)cc1,EC50,BJ [2],13.6 µM (active)
same,AC50,INS1,6.34 µM (active)
same,EC50,BJ [3],2.76 µM (active)
same,AC50,[4],38.2 µM (active)
same,EC50,Streptokinase A,> 150 µM (not active)
same,EC50,[5],8.62 µM (inconclusive)
same,EC50,[6],> 120 µM (not active)
same,EC50,[7],> 120 µM (not active)
same,IC50,[8],1.86 µM (active)
same,EC50,BJ [9],14.9 µM (inconclusive)
same,EC50,[10],12.6 µM (active)
same,EC50,[11],63.5 µM (active)
same,EC50,Streptococcus,> 150 µM (not active)
same,EC50,Protein RecA,40.5 µM (active)
CCOc1cccc(/C=C2\NC(=S)N(c3ccccc3)C2=O)c1O,IC50,[12],20 µM (inactive)
same,IC50,[13],80 µM (inactive)
Oc1ccc(/C=N/CCc2ccccc2)cc1,IC50,cells [14],> 29.9 µM (inactive)
same,EC50,cells [15],> 29.9 µM (inactive)
CC(C)N1C[C@H](CN(C)Cc2ccc(Oc3ccccc3)cc2)Oc2c(NC(=O)c3ccncc3)cccc2C1=O,AC50,[1],0.00193 µM (active)
COc1ccc(NC(=O)c2sc(=O)n(Cc3ccc(F)c(Cl)c3)c2C)cc1OC,IC50,[16],8.01 µM (active)

# Reference: ChEMBL document CHEMBL1201862, “PubChem BioAssay data set” (2004)
